Source: patent US4233291A (priority 1977, dated 1980)

Key:
[1] = test system: larvae of schistosoma mansoni; assay: Release of 51 chromium from larvae of schistosoma mansoni, cytotoxicity in vivo; settings: macrophages of the rat stimulated in vivo
Excerpt: The depsipeptide from Fusarium equiseti has been tested to determine its action in vivo on the cytotoxicity induced in the intraperitoneal macrophages of the rat against the larvae of schistosoma mansoni.
The macrophages are stimulated either in vitro or in vivo and are contacted with a suspension of larvae of schistosoma mansoni previously tagged with 51 chromium.
This measure reflects the significance of cellular lesions on the surface of the schistosomules. The radio activity released in the medium is expressed as a percentage of the total radio-activity present in the schistosomules at the beginning of the experiments.

[2] = test system: peritoneal macrophages from unstimulated rats (Fisher strain); assay: Stimulation of the activities of the macrophages, cultivated with the substance; format: cell-based; settings: 16 hours incubation
Method: The peritoneal macrophages from unstimulated rats (Fisher strain) are prelevated through peritoneal washing and isolation on plastic rack. They are cultivated for a night with dosages of the depsipeptide ranging from 1 picogramm to 1 nanogramm/ml.
The content in proteins, in lysosomal β-glucoronidase, and in cytoplasmic leucine-amino peptidase are determined on the cells previously lysed with 0.05% Triton X-100.
In the same manner, incubation has also been performed with a solution of lipopolysaccharide from Escherichia coli and Muramyldipeptide as reference substances.
Amounts of cellular enzymes and proteins in the macrophages after 16 hours incubation.
The content in proteins is expressed in g/10^6 cells and that in β-glucuronidase in mMol of substrate hydrolysed by 10^6 cells per hour.

leukemic cells L 1210 = test system: leukemic cells L 1210; set-up: species or system mice; settings: mouse, in vivo
[3] = 1 ng/ml (row printed after the first 100 ng/ml)
[4] = 10 ng/ml (second row so printed)
[5] = 100 ng/ml (second row so printed, last row)

## CC(=O)N[C@@H]1[C@@H](O[C@H](C)C(=O)N[C@@H](C)C(=O)N[C@H](CCC(=O)O)C(N)=O)[C@H](O)[C@@H](CO)O[C@H]1O [Muramyldipeptide]
[1]; 1 g
  release of 51 Cr (change): +6%
[1]; 100 g
  release of 51 Cr (change): +10%
[2]; 1 pg/ml
  Proteins: 46,1 ± 2,2 g/10^6 cells
  β-glucuronidase: 36,5 ± 0,1 mMol of substrate hydrolysed b
[2]; 10 pg/ml
  Proteins: 44,8 ± 0,7 g/10^6 cells
  β-glucuronidase: 36,3 ± 6,4 mMol of substrate hydrolysed b
[2]; 100 pg/ml
  Proteins: 44,6 ± 1,9 g/10^6 cells
  β-glucuronidase: 41,0 ± 2,9 mMol of substrate hydrolysed b
[2]; [3]
  Proteins: 45,1 ± 0,9 g/10^6 cells
  β-glucuronidase: 30,6 ± 3,8 mMol of substrate hydrolysed b
[2]; 1 ng
  Proteins: 44,0 ± 1,8 g/10^6 cells
  β-glucuronidase: 34,0 ± 5,3 mMol of substrate hydrolysed b
[2]; [4]
  Proteins: 48,1 ± 1,8 g/10^6 cells
  β-glucuronidase: 32,2 ± 3,0 mMol of substrate hydrolysed b
[2]; 10 ng/ml
  Proteins: 43,4 ± 1,8 g/10^6 cells
  β-glucuronidase: 39,6 ± 6,1 mMol of substrate hydrolysed b
[2]; [5]
  Proteins: 55,3 ± 3,1 g/10^6 cells
  β-glucuronidase: 39,0 ± 1,6 mMol of substrate hydrolysed b
[2]; 100 ng/ml
  Proteins: 40,5 ± 0,7 g/10^6 cells
  β-glucuronidase: 23,9 ± 6,2 mMol of substrate hydrolysed b

## O=P1(N(CCCl)CCCl)NCCCO1 (stereo not drawn) [Cyclophosphamide]
Leukemic cells L 1210
  survival time: extends in a statiscally significative manner
